# Data from patent publication EP3355943B1, “METHODS AND SYSTEMS FOR TREATING MEDICAL DEVICES AND FLUIDS” (Ethicon, Inc., priority 2015, dated 2017).
# Several values for one entry are separate records, joined by “and”; a condition that tells them apart may be missing. Identical values can stand only once.
# Experiments:
# Type in all cases: biochemical
# [1] = Detection of LPS in water in presence of CaSt and EDTA and Tween 20; conditions: 5mL, 8330 EU spiked; for Percent detected Endotoxin: 60 min
# Protocol: Further testing was performed with addition of EDTA and Polysorbate 20 reagents to verify permanent removal of LPS/endotoxin activity, by adding EDTA and Polysorbate 20 to the extraction solutions to test for potential recovery of endotoxin activity when introduced to these two substances.
# The testing was performed in aqueous solutions with added EDTA and Polysorbate 20, with suspended CaSt present in some solutions in varying quantities. […] The tubes were vortexed for 1 minute and placed in a 37C bath for 1 hour. The tubes were removed from the bath and again vortexed for 1 minute. The solutions were diluted and tested for endotoxin using the Kinetic Chromogenic Method for Endotoxin Quantitation, Charles River Laboratories, Charleston S.C. […] These samples were rigorously vortexed and tested using the Kinetic Chromogenic Method for Endotoxin Quantitation, Charles River Laboratories, Charleston S.C. […]
# [2] = Endotoxin removal by sonicated CaSt suspension stored 1 month; conditions: listed as CaSt suspension; for Percent Endotoxin Removal(15 min/30 min): sonicated suspension stored 1 month
# Protocol: 10 ml of LRW water (LAL reagent water, contains no endotoxin) containing 0.04 g of CaSt suspension was sonicated using Misonix Probe Sonicator, Model: S-4000, Amplitude: 30, Time: 30 seconds and then the suspension was stored for 1 month at ambient temperature. Then 1 ml of the above suspension was added to 10 ml endotoxin containing water SRW and the resulting endotoxin concentrations in the combined solution measured after 15 min and 30 min, with the results presented in Table 14.
# [3] = Detection of LPS after adding CaSt powder to water spiked with LPS (Kinetic Chromogenic Method for Endotoxin Quantitation)
# Protocol: Water and aqueous solutions (containing LPS with various sources of endotoxin) were exposed to calcium stearate [CaSt] […] 5 mL of water solution of known endotoxin concentration (generated by spiking endotoxin-free water with water solution of known endotoxin concentration) was added to the each test tube, vortexed vigorously (1 minute) using Fisher Scientific Digital Vortex Mixer, and then placed in a warm water bath (37°C) for 1 hour. After 1 hour, the tubes were removed from warm water bath and vortexed vigorously (1 minute). Sterile syringes with needles were used to extract the solution without removing the calcium stearate. This solution was then tested for endotoxin levels. Kinetic Chromogenic Method for Endotoxin Quantitation, using Endosafe MCS Multi Cartridge System by Charles River Laboratories, Charleston S.C.
# [4] = Testing of various sources of LPS: detection of LPS after adding CaSt to spiked water
# Protocol: Therefore, for the methods described above, the activity of endotoxin was tested with various sources of endotoxin. Laboratory grown endotoxin is purified while natural endotoxin will be present with other substances such as proteins and phospholipids.
# The laboratory grown endotoxin used in this experiment was supplied by Charles River Laboratories.
# Natural airborne endotoxin was captured using an electret filter. Electret filters are produced from dielectric polymer fibers that develop an electrical charge when air flows past them, capturing the endotoxin along with other particles. The endotoxin was extracted from the filter by placing the filter in endotoxin free water for an extended period of time.
# Two other natural sources of endotoxin were obtained from water samples in the surrounding environment. One source was a pool of sitting rain water and other being a small puddle on the side of the Raritan River. The sitting rain water (SRW) was purified via chlorination and 0.2 µm filter. The Raritan River Water (RRW) was not altered in anyway. The same testing procedure was conducted for all sources of endotoxin.
# Table 11. Detection of LPS after adding CaSt to test tubes containing water spiked with LPS
# [5] = Wound dressing (fibrin pad) spiked with LPS, treated in cyclohexane containing CaSt; conditions: Tube 2: 10 mL cyclohexane with 0.1 g CaSt, 15 minutes rolling; for Endotoxin detected on Pad (EU): pad spiked 8.9 EU
# Protocol: A wound dressing containing dry fibrinogen and dry thrombin on an absorbable support was tested as follows. The pad was spiked with LPS and then exposed to cyclohexane containing CaSt to determine the effect on detectable LPS.
# Three 1x2 inch pieces of the dressing were spiked with endotoxin resulting in 8.9 EU of LPS. The pieces were allowed to dry for 20 minutes, then placed into 50 mL polypropylene conical tubes. 7.5 mL of LAL reagent water +2.5 mL 0.25M tris buffer was added to Tube 1. 10 mL of cyclohexane with 0.1 g of CaSt was added to Tube 2. 10 mL of cyclohexane was added to Tube 3. The tubes were closed and then placed on the bottle roller rotator machine for 15 minutes so that the tube could continuously roll and the dressing was constantly in contact with liquid.
# Tube 1 solution was then diluted and tested for endotoxin on the MCS system. The fibrin pad pieces from Tube 2 and Tube 3 were removed and placed in new tubes and extracted in 7.5 mL of LAL reagent water + 2.5 mL 0.25M tris buffer. The solutions were then tested on the MCS system for endotoxin (LPS). Table 9. Results of testing of dressing in cyclohexane containing CaSt
# [6] = Weight of Calcium Stearate 0.007 g
# [7] = Weight of Calcium Stearate 0.018 g
# [8] = Weight of Calcium Stearate 0.028 g
# [9] = 0.0027 g CaSt in 5 ml water, 14,400 EU spiked
# [10] = 0.0108 g CaSt in 5 ml water, 14,400 EU spiked
# [11] = 0.0518 g CaSt in 5 ml water, 14,400 EU spiked
# [12] = 0.2502 g CaSt in 5 ml water, 14,400 EU spiked
# [13] = CaSt powder 0.254 g (sample 1), 0.2607 g (sample 2) in 5 ml water, 14,400 EU spiked, 0.254 g CaSt powder added
# [14] = CaSt powder 0.254 g (sample 1), 0.2607 g (sample 2) in 5 ml water, 14,400 EU spiked, 0.2607 g CaSt powder added
# [15] = Charles River Standard, 0.018 g Calcium Stearate, 8330 EU spiked
# [16] = Charles River Standard, 0.05 g Calcium Stearate, 8330 EU spiked
# [17] = Charles River Standard, 0.15 g Calcium Stearate, 8330 EU spiked
# [18] = Charles River Standard, 0.25 g Calcium Stearate, 8330 EU spiked
# [19] = Dust Filter Extraction Water, 0.01 g Calcium Stearate, 9280 EU spiked
# [20] = Dust Filter Extraction Water, 0.25 g Calcium Stearate, 9280 EU spiked
# [21] = RRW, 0.01 g Calcium Stearate, 4340 EU spiked
# [22] = RRW, 0.1 g Calcium Stearate, 4340 EU spiked
# [23] = RRW, 0.25 g Calcium Stearate, 4340 EU spiked
# [24] = SRW, 0.01 g Calcium Stearate, 11100 EU spiked
smiles,measurement,setting,value
CCCCCCCCCCCCCCCCCC(=O)O [Calcium Stearate],Endotoxin Detected (EU),[1]; [6],3995 EU
same,Percent detected Endotoxin,[1]; [6],48.0%
same,Endotoxin Detected (EU),[1]; [7],1487.5 EU
same,Percent detected Endotoxin,[1]; [7],17.9%
same,Endotoxin Detected (EU),[1]; [8],235 EU
same,Percent detected Endotoxin,[1]; [8],2.8%
same,Endotoxin EU/mL (15 min after addition of CaSt suspension),"[2]; 0.04 g CaSt in 10 ml LRW sonicated, stored 1 month, added to SRW, initial 732.5 EU/mL, 15 min",372 EU/mL and 362 EU/mL
same,Endotoxin EU/mL (30 min after addition of CaSt suspension),"[2]; 0.04 g CaSt in 10 ml LRW sonicated, stored 1 month, added to SRW, initial 732.5 EU/mL, 30 min",384 EU/mL and 278 EU/mL
same,Percent Endotoxin Removal(15 min/30 min),[2]; 15 min,49.2% and 50.6%
same,Percent Endotoxin Removal(15 min/30 min),[2]; 30 min,47.6% and 62.0%
same,Endotoxin Detected (EU),[3]; [9],"11,055 EU"
same,Percent of detected Endotoxin vs. initial concentration,[3]; [9],77% and 76.77%
same,Endotoxin Detected (EU),[3]; [10],"2,925 EU"
same,Percent of detected Endotoxin vs. initial concentration,[3]; [10],20% and 20.31%
same,Endotoxin Detected (EU),[3]; [11],9.4 EU
same,Percent of detected Endotoxin vs. initial concentration,[3]; [11],0.07%
same,Endotoxin Detected (EU),[3]; [12],26.7 EU
same,Percent of detected Endotoxin vs. initial concentration,[3]; [12],0.19%
same,Percent of detected Endotoxin vs. initial concentration,"[3]; CaSt powder 0.252/0.258/0.272/0.267 g (samples 1-4) in 5 ml water, 5.208 EU spiked, 37°C 1 hour, 0.252 g CaSt powder added",<2.88%
same,Percent of detected Endotoxin vs. initial concentration,"[3]; CaSt powder 0.252/0.258/0.272/0.267 g (samples 1-4) in 5 ml water, 5.208 EU spiked, 37°C 1 hour, 0.258 g CaSt powder added",<8.06%
same,Percent of detected Endotoxin vs. initial concentration,"[3]; CaSt powder 0.252/0.258/0.272/0.267 g (samples 1-4) in 5 ml water, 5.208 EU spiked, 37°C 1 hour, 0.267 g CaSt powder added",<3.46%
same,Endotoxin Detected (EU),[3]; [13],12.1 EU
same,Percent of detected Endotoxin vs. initial concentration,[3]; [13],0.08%
same,Endotoxin Detected (EU),[3]; [14],10.3 EU
same,Percent of detected Endotoxin vs. initial concentration,[3]; [14],0.07%
same,percent of endotoxin recovered,"[4]; 0.1 grams of calcium stearate and higher, all sources of endotoxin",under 5%
same,Endotoxin Detected (EU),"[4]; Charles River Standard, 0.007 g Calcium Stearate, 8330 EU spiked",3995 EU
same,Endotoxin Detected (EU),[4]; [15],1487.5 EU
same,Percent of Endotoxin Detected,[4]; [15],17.9%
same,Endotoxin Detected (EU),"[4]; Charles River Standard, 0.028 g Calcium Stearate, 8330 EU spiked",235 EU
same,Endotoxin Detected (EU),[4]; [16],190.5 EU
same,Percent of Endotoxin Detected,[4]; [16],2.3%
same,Endotoxin Detected (EU),[4]; [17],86.5 EU
same,Percent of Endotoxin Detected,[4]; [17],1.0%
same,Endotoxin Detected (EU),[4]; [18],38.5 EU
same,Percent of Endotoxin Detected,[4]; [18],0.5%
same,Endotoxin Detected (EU),[4]; [19],3440 EU
same,Percent of Endotoxin Detected,[4]; [19],37.1%
same,Endotoxin Detected (EU),[4]; [20],28.5 EU
same,Percent of Endotoxin Detected,[4]; [20],0.3%
same,Endotoxin Detected (EU),[4]; [21],960 EU
same,Percent of Endotoxin Detected,[4]; [21],22.1%
same,Endotoxin Detected (EU),[4]; [22],165 EU
same,Percent of Endotoxin Detected,[4]; [22],3.8%
same,Endotoxin Detected (EU),[4]; [23],70 EU
same,Percent of Endotoxin Detected,[4]; [23],1.6%
same,Percent of Endotoxin Detected,"[4]; RRW, 0.35 g Calcium Stearate, 4340 EU spiked",2.6%
same,Endotoxin Detected (EU),[4]; [24],2780 EU
same,Percent of Endotoxin Detected,[4]; [24],25.0%
same,Percent of Endotoxin Detected,"[4]; SRW, 0.25 g Calcium Stearate, 11100 EU spiked",1.0%
same,Percent Endotoxin detected as compared to Tube 1,"[5]; Tube 1 = no cyclohexane, 8.9 EU",20.2%
same,Endotoxin detected on Pad (EU),[5],1.8 EU
same,Endotoxin detected on Pad (EU),[5]; listed as CaSt,2 EU
